From PMC6182381, “Population Pharmacokinetics and Exposure-Response Relationships of Naldemedine” (Pharmaceutical Research, 2018)
Where two headings read alike, the source gives them in different places.

Assays:
[1] = Population PK analysis of plasma naldemedine concentrations (NONMEM, 2-compartment model); format: in vivo, human; conditions: for AUC: human, plasma, oral
Description: A population PK model was developed with pooled naldemedine concentrations from healthy subjects, patients with chronic non-cancer pain and OIC, and cancer patients with OIC as described in Table I. Blood sampling times for PK analysis in each study are shown in Supplemental Table S1. All studies were performed in accordance with the Declaration of Helsinki, the International Conference on Harmonization (ICH) E6 Guidance for Good Clinical Practice and all other applicable regulatory requirements. Study protocols were approved by the responsible institutional review boards. Written informed consent for each clinical study was obtained from all subjects.
Background data available for subjects were summarized and used as candidate covariates: age, body weight, body mass index (BMI), albumin (ALBU), aspartate aminotransferase (AST) and alanine aminotransferase (ALT), total bilirubin (Tbil), and creatinine clearance (CLcr) at baseline as continuous data, and gender (male, female), race/ethnicity (“White” or “non-White”, “Japanese” or “non-Japanese”, “Hispanic or Latino” or “non-Hispanic or non-Latino”), health status (healthy subjects/ Patients with chronic non-cancer pain and OIC/ Cancer patients with OIC), dosing conditions (dosing in the fasted/fed state, with/without concomitant use of P-gp/CYP3A inhibitor/inducer), and formulation (“solution or suspension”, “phase 1 or 2 tablet”, “phase 3 tablet”) as categorical data. Background data at baseline were obtained from observations prior to or on the first day of dosing, or at screening if this value was not available. Categorical age (<65 years or ≥ 65 years) was also used. CLcr was calculated using the Cockcroft-Gault eq. ([12]). Data from the concomitant treatment period in the phase 1 DDI studies [1202 V9218, 1403V921D, and 1502V921E]), in which co-administrations of P-gp/CYP3A inhibitor/inducer (cyclosporine, rifampin, itraconazole, or fluconazole) with naldemedine were designed as the worst case scenario for each inhibitor/inducer (single dose of cyclosporine 600 mg, rifampin 600 mg for 17 days, itraconazole 200 mg for 7 days, fluconazole 200 mg for 7 days), were excluded from the population PK analysis because they were not clinically relevant to the OIC treatment. Food condition was assumed as fasted in phase 2b studies (1107 V9221 and 1108 V9222), in which the date/time of food intake had not been recorded. Food condition was defined as fasted in cases where naldemedine was administered more than 1 h after the food intake in phase 3 studies (1314 V9231, 1315 V9232, 1331 V9236, 1336 V9238, and 1339 V9239).
The bioanalytical methods for determination of concentrations of naldemedine and its metabolites in human plasma were validated with the lower limit of quantification (LLOQ) being 0.01 ng/ml for naldemedine ([11]). Plasma samples were analyzed after solid phase extraction by a liquid chromatography/mass spectrometry/mass spectrometry (LC/MS/MS) method using the positive ion mode and multiple reaction monitoring. All the analytical methods were validated across the calibration range with respect to selectivity, recovery, accuracy, precision, and stability under a variety of conditions.
The population PK analysis was performed by using the non-linear mixed effect modeling software NONMEM (version 7.3, ICON Development Solutions, US), with PREDPP library and NM-TRAN preprocessor ([13]). To support analyses by NONMEM, Perl-speaks-NONMEM (PsN) (version 4.2) and Xpose (version 4.2.1) were used ([14]). The first order conditional estimation with interaction (FOCE-I) method was used for the analysis.
The PK profiles of naldemedine were examined using conventional compartment disposition models with first order absorption based on the PK in healthy volunteers ([11]). To determine the basic structural PK model for naldemedine, 1-, 2- and 3-compartment models with first order absorption were tested. […]

[2] = test system: patients with chronic non-cancer pain and OIC; parameters: method as in PMID 28576452; conditions: cited from earlier work
[3] = 1314V9231_1315V9232 (Phase 3), 0.2 mg
[4] = final model, bootstrap estimates

In the case of `CC(C)(NC(=O)C1=C(O)[C@@H]2Oc3c(O)ccc4c3[C@@]23CCN(CC2CC2)[C@H](C4)[C@]3(O)C1)c1nc(-c2ccccc2)no1` [naldemedine], the “Empirical Bayesian-estimated AUCss, Max” value ([1]; 1107V9221 (Phase 2b), 0.1 mg) is reported as 13.49 ng·h/mL, the “Empirical Bayesian-estimated AUCss, Min” value ([1]; 1107V9221 (Phase 2b), 0.1 mg) is reported as 7.02 ng·h/mL and the “Empirical Bayesian-estimated AUCss, Max” value ([1]; 1107V9221 (Phase 2b), 0.2 mg) is reported as 51.36 ng·h/mL. For the same molecule, the “Empirical Bayesian-estimated AUCss, Min” value ([1]; 1107V9221 (Phase 2b), 0.2 mg) was 12.66 ng·h/mL, the “Empirical Bayesian-estimated AUCss, Max” value ([1]; 1107V9221 (Phase 2b), 0.4 mg) was 74.93 ng·h/mL and the “Empirical Bayesian-estimated AUCss, Min” value ([1]; 1107V9221 (Phase 2b), 0.4 mg) was 25.78 ng·h/mL. For the same molecule, the “Empirical Bayesian-estimated AUCss, Max” value [1, 3] was 92.1 ng·h/mL, the “Empirical Bayesian-estimated AUCss, Min” value [1, 3] was 5.669 ng·h/mL and the “Empirical Bayesian-estimated CL/F, Mean” value ([1]; 1314V9231_1315V9232, Age 65 -< 75) was 7.63 L/h. The “Empirical Bayesian-estimated CL/F, Mean” value ([1]; 1314V9231_1315V9232, Age < 65) was 8.89 L/h, the “Empirical Bayesian-estimated CL/F, Mean” value ([1]; 1314V9231_1315V9232, Age >= 65) was 7.61 L/h and the “Empirical Bayesian-estimated CL/F, Mean” value ([1]; 1314V9231_1315V9232, Age >= 75) was 7.54 L/h. The “Empirical Bayesian-estimated CL/F, Mean” value ([1]; 1314V9231_1315V9232, Asian) was 13.1 L/h, the “Empirical Bayesian-estimated CL/F, Mean” value ([1]; 1314V9231_1315V9232, Black) was 7.51 L/h and the “Empirical Bayesian-estimated CL/F, Mean” value ([1]; 1314V9231_1315V9232, Female) was 8.48 L/h. The “Empirical Bayesian-estimated CL/F, Mean” value ([1]; 1314V9231_1315V9232, Male) was 9.08 L/h, the “Empirical Bayesian-estimated CL/F, Mean” value ([1]; 1314V9231_1315V9232, OIC non-Cancer) was 8.73 L/h and the “Empirical Bayesian-estimated CL/F, Mean” value ([1]; 1314V9231_1315V9232, White) was 9.00 L/h. For the same molecule, the “Empirical Bayesian-estimated CL/F, Mean” value ([1]; 1314V9231_1315V9232, non-White) was 7.59 L/h, the “Empirical Bayesian-estimated CL/F, Mean” value ([1]; 1314V9231_1315V9232, race Others) was 6.36 L/h and the “Empirical Bayesian-estimated CL/F, Mean” value ([1]; 1331V9236 (cancer patients), Age 65 -< 75) was 7.15 L/h. For the same molecule, the “Empirical Bayesian-estimated CL/F, Mean” value ([1]; 1331V9236 (cancer patients), Age < 65) was 7.51 L/h, the “Empirical Bayesian-estimated CL/F, Mean” value ([1]; 1331V9236 (cancer patients), Age >= 65) was 7.15 L/h and the “Empirical Bayesian-estimated CL/F, Mean” value ([1]; 1331V9236 (cancer patients), Age >= 75) was 7.16 L/h. The “Empirical Bayesian-estimated CL/F, Mean” value ([1]; 1331V9236 (cancer patients), Asian) was 7.34 L/h, the “Empirical Bayesian-estimated CL/F, Mean” value ([1]; 1331V9236 (cancer patients), Female) was 6.54 L/h and the “Empirical Bayesian-estimated CL/F, Mean” value ([1]; 1331V9236 (cancer patients), Male) was 7.85 L/h. For the same molecule, the “Empirical Bayesian-estimated CL/F, Mean” value ([1]; 1331V9236 (cancer patients), non-White) was 7.34 L/h, the “Empirical Bayesian-estimated CL/F, Mean” value ([1]; 1331V9236, OIC Cancer) was 7.34 L/h and the ALAG ([1]; base model) was 0.195 h. For the same molecule, the CL/F ([1]; base model) was 8.20 L/h, the “Inter-individual variability of CL/F” value ([1]; base model) was 40.5 CV% and the “Inter-individual variability of Ka” value ([1]; base model) was 168.2 CV%. The “Inter-individual variability of Q/F” value ([1]; base model) was 50.5 CV%, the “Inter-individual variability of Vc/F” value ([1]; base model) was 38.5 CV% and the “Inter-individual variability of Vp/F” value ([1]; base model) was 37.7 CV%. For the same molecule, the “Intra-individual variability, proportional” value ([1]; base model) was 25.6 CV%, the Ka ([1]; base model) was 3.81 h⁻¹ and the Q/F ([1]; base model) was 5.02 L/h. It also gave a Vc/F ([1]; base model) of 83.6 L, a Vp/F ([1]; base model) of 43.2 L and an AUC ([1]; both sexes, 0.2 mg, reference population, 0.2 mg once daily, read-out: typical AUCss) of 22 ng·h/mL. The “decrease of population predicted AUCss vs reference population” value ([1]; covariates at extreme values) was 25%, the “increase of population predicted AUCss vs reference population” value ([1]; covariates at extreme values) was 76% and the ALAG ([1]; final model) was 0.195 h. The “Inter-individual variability of CL/F” value ([1]; final model) was 37.9 CV%, the “Inter-individual variability of Ka” value ([1]; final model) was 161.2 CV% and the “Inter-individual variability of Q/F” value ([1]; final model) was 46.3 CV%. The “Inter-individual variability of Vc/F” value ([1]; final model) was 25.3 CV%, the “Inter-individual variability of Vp/F” value ([1]; final model) was 36.3 CV% and the “Intra-individual variability, proportional” value ([1]; final model) was 25.7 CV%. The Q/F ([1]; final model) was 4.77 L/h, the “THETA (7), effect of non-Cancer OIC patients on Vc/F” value ([1]; final model) was 1.20 and the “THETA (8), effect of Cancer patients with OIC on Vc/F” value ([1]; final model) was 1.27. For the same molecule, the “THETA (9), effect of fed condition on Vc/F” value ([1]; final model) was 1.12, the “THETA (11), exponent of Age/52 on Ka” value ([1]; final model) was −1.16 and the Vp/F ([1]; final model) was 41.8 L. For the same molecule, the “ALAG, bootstrap median” value [1, 4] was 0.196 h, the “CL/F, THETA (1), bootstrap median” value [1, 4] was 9.15 L/h and the “Inter-individual variability of CL/F, bootstrap median” value [1, 4] was 38.6 CV%. For the same molecule, the “Inter-individual variability of Ka, bootstrap median” value [1, 4] was 161.0 CV%, the “Inter-individual variability of Q/F, bootstrap median” value [1, 4] was 47.5 CV% and the “Inter-individual variability of Vc/F, bootstrap median” value [1, 4] was 25.2 CV%. The “Inter-individual variability of Vp/F, bootstrap median” value [1, 4] was 36.2 CV%, the “Intra-individual variability, proportional, bootstrap median” value [1, 4] was 25.5 CV% and the “Ka, THETA (10), bootstrap median” value [1, 4] was 2.90 h⁻¹. The “Q/F, bootstrap median” value [1, 4] was 4.73 L/h, the “THETA (7), non-Cancer on Vc/F, bootstrap median” value [1, 4] was 1.19 and the “THETA (8), Cancer on Vc/F, bootstrap median” value [1, 4] was 1.28. For the same molecule, the “THETA (9), fed condition on Vc/F, bootstrap median” value [1, 4] was 1.12, the “THETA (11), Age on Ka, bootstrap median” value [1, 4] was −1.23 and the “Vc/F, THETA (6), bootstrap median” value [1, 4] was 76.0 L. The “Vp/F, bootstrap median” value [1, 4] was 41.6, the “Ka, THETA (10)” value ([1]; final model, age 52) was 2.94 h⁻¹ and the “Vc/F, THETA (6)” value ([1]; final model, healthy subjects, body weight 76 kg, fasted) was 75.9 L. The Vc/F ([1]; final model, reference population: 76 kg, non-cancer OIC patients, fasted) was 91.1 L, the “CL/F, THETA (1)” value ([1]; final model, reference: 52-year-old, male, White, CLcr 108 ml/min) was 9.10 L/h and the AUC ([1]; 0.1 mg, 1107V9221 (Phase 2b), 0.1 mg, read-out: Empirical Bayesian-estimated AUCss, Geometric Mean) was 10.2 ng·h/mL. It also gave an AUC ([1]; 0.1 mg, 1107V9221 (Phase 2b), 0.1 mg, read-out: Empirical Bayesian-estimated AUCss, Mean) of 10.5 ng·h/mL, an AUC ([1]; 0.1 mg, 1107V9221 (Phase 2b), 0.1 mg, read-out: Empirical Bayesian-estimated AUCss, Median) of 10.4 ng·h/mL and an AUC ([1]; 0.2 mg, 1107V9221 (Phase 2b), 0.2 mg, read-out: Empirical Bayesian-estimated AUCss, Geometric Mean) of 20.3 ng·h/mL. The AUC ([1]; 0.2 mg, 1107V9221 (Phase 2b), 0.2 mg, read-out: Empirical Bayesian-estimated AUCss, Mean) was 22.1 ng·h/mL, the AUC ([1]; 0.2 mg, 1107V9221 (Phase 2b), 0.2 mg, read-out: Empirical Bayesian-estimated AUCss, Median) was 20.2 ng·h/mL and the AUC ([1]; 0.2 mg, 1314V9231_1315V9232 (Phase 3), 0.2 mg, read-out: Empirical Bayesian-estimated AUCss, Geometric Mean) was 25.1 ng·h/mL. For the same molecule, the AUC ([1]; 0.2 mg, 1314V9231_1315V9232 (Phase 3), 0.2 mg, read-out: Empirical Bayesian-estimated AUCss, Mean) was 27.5 ng·h/mL, the AUC ([1]; 0.2 mg, 1314V9231_1315V9232 (Phase 3), 0.2 mg, read-out: Empirical Bayesian-estimated AUCss, Median) was 24.5 ng·h/mL and the AUC ([1]; 0.4 mg, 1107V9221 (Phase 2b), 0.4 mg, read-out: Empirical Bayesian-estimated AUCss, Geometric Mean) was 41.6 ng·h/mL. The AUC ([1]; 0.4 mg, 1107V9221 (Phase 2b), 0.4 mg, read-out: Empirical Bayesian-estimated AUCss, Mean) was 43.8 ng·h/mL, the AUC ([1]; 0.4 mg, 1107V9221 (Phase 2b), 0.4 mg, read-out: Empirical Bayesian-estimated AUCss, Median) was 38.2 ng·h/mL and the “Treatment-related adverse events (patients)” value ([2]; Study 1314 V9231, 59 of 271 patients) was 22%. The “Treatment-related adverse events (patients)” value ([2]; Study 1315 V9232, 54 of 271 patients) was 20%.
